We go through three compounds from US20110282078A1, “CYCLOHEXENE 1,4 -CARBOXYLATES” (Draths Corporation, priority 2009, published 2011).

Converted amounts (≈) assume the structure as drawn.

For orientation: solubility means the concentration that dissolves in the medium under given conditions.

The data set is described as follows: approximate solubility at room temperature in ethyl acetate. In kind it is physicochemical. The note with it: organic solvent or mixture. How it is done: A stirred suspension of dried (less than 5 weight percent of water), crude cis,cis or cis,trans muconic acid (200 g) in tetrahydrofuran (THF) (1.8 liter (l)) is heated to 50° C., Within 45 minutes at 50° C. most of the solid dissolves. Activated charcoal (35 g) is added. After 1 hour, the hot suspension is clarified by filtration through a bed of Celite™ diatomaceous earth. The filtrate is evaporated to dryness and the residue is dried under high vacuum to yield pure cis,cis or cis,trans muconic acid (166 g, 83 percent mass recovery). In the case of cis,cis muconic acid, any traces of cis,trans muconic acid can be removed by resuspending the solid twice in refluxing ethyl acetate, which is removed each time by decantation from the cooled solution. The approximate solubilities at room temperature in ethyl acetate are 1 mg/ml for cis,cis muconic acid, 5 mg/ml for cis,trans muconic acid, and 0.1 mg/ml for trans,trans muconic acid.
Turning to `O=C(O)/C=C\C=C/C(=O)O` [cis,cis muconic acid], the solubility was ~1000 µg/mL (≈ 7.04 mM). In the case of `O=C(O)/C=C\C=C\C(=O)O` [cis,trans muconic acid], the solubility was ~5000 µg/mL (≈ 35.2 mM). As to `O=C(O)/C=C/C=C/C(=O)O` [trans,trans muconic acid], the solubility was ~100 µg/mL (≈ 0.704 mM).
